{
  "source": "paper PMC11243672",
  "about": "“New 3-(Dibenzyloxyphosphoryl)isoxazolidine Conjugates of N1-Benzylated Quinazoline-2,4-diones as Potential Cytotoxic Agents against Cancer Cell Lines” (Molecules, 2024)",
  "key": {"[1]": {"test_system": "prostate cancer cells (PC-3)", "test": "MTS-based cytotoxicity assay, PC-3", "format": "cell-based, human", "settings": "Homo sapiens, 72 h, 72 h treatment, 0.205–50 μM, mean ± SEM", "procedure": "(§1) In this study, we applied the most extensively used MTS-based assay, which provides a valuable tool for determining cell viability by evaluating metabolic activity. The cytostatic activity of the tested compounds was defined as the half-maximal inhibitory concentration (IC50) causing a 50% decrease in the metabolic activity of the cells. It was determined against breast cancer (MCF-7), fibrosarcoma (HT-1080), and prostate cancer (PC-3) cells.\n(§2) The tested compounds were tested against three different human cancer cell lines (breast adenocarcinoma MCF-7 ATCC® HTB-22^TM, fibrosarcoma HT-1080 ATCC® CCL121^TM, and prostate adenocarcinoma PC-3 ATCC® CRL-1435^TM). For the cell viability experiment, cells were seeded in transparent 96-well plates (FALCON no. 353072, Corning, Durham, NC, USA) in MEM (Gibco no. 31095-029, UK) supplemented with 10% heat-inactivated FBS (Gibco no. 10500-064, UK). The cell seeding density was as follows: MCF-7 12,000 cells/well, HT-1080 7000 cells/well, PC-3 10,000 cells/well. Cells were seeded one day before treatment with the tested compounds and cultured overnight. The confluence on the treatment day was around 30%. The tested compounds were dissolved in DMSO as 10 mM stock solutions and kept under −4 °C. On the day of experimentation, the medium was removed and replaced with a fresh one that contained the following: (1) dimethylsulfoxide (DMSO < 0.1%, vehicle control (Veh)); (2) increasing the concentration of compounds (0.205–50 μM, performed as a 2.5-fold serial dilution for dose–response analysis). Treatment with compounds was carried out for 72 h. Each treatment was replicated three times in a single experiment, with three separate experiments conducted. (n = 9). When significant variability in the results occurred, an additional test was performed on certain compounds. During the incubation, the cells were examined under an inverted microscope to check if the compounds had not precipitated in the culture medium. The inhibitory effect of compounds on the cell was examined using an MTS-based assay (Promega, Madison, WI, USA) following the manufacturer’s protocol. The absorbance was measured at 490 nm using Tecan Spark’s multimode plate reader (Tecan, Männedorf, Switzerland). A reference wavelength of 630 nm was used to subtract the background. IC50 values were calculated by fitting a non-linear regression to a sigmoidal dose–response curve in GraphPad Prism version 8.0.1."}, "[2]": {"test_system": "human hepatoma cells (HepG2)", "test": "Safety study in vitro (MTS viability), HepG2", "format": "cell-based", "settings": "0.205–50 μM, 72 h", "procedure": "(§3) In drug development, particular attention should be paid to studying the safety profile of compounds. Promising drug candidates should not cause adverse effects on essential organ systems like the liver, kidney, or healthy cells in general. Systemic toxicity of the compound is the main factor limiting its therapeutic application and efficiency. In our study, a preliminary study on nephrotoxicity and hepatotoxicity was evaluated in human embryonic kidney cells (HEK293, ATCC® CRL1573™) and human hepatoma cells (HepG2, ATCC® HB8065™), respectively. HEK293 is commonly used to evaluate the cytotoxicity of nephrotoxic compounds [42]. HepG2 is a well-established in vitro human cell system to study liver toxicity. We also used healthy human skin fibroblast (HSF) to extend the cytotoxicity profile. All three cell lines were cultured in DMEM (Gibco no. 61965-026, UK) supplemented with 10% FBS (Gibco no. 10500-064, UK). For the experiment, cells were seeded (8 × 10^3 cells/100μL/well) in transparent 96-well plates (FALCON no. 353072, Corning, Durham, […], USA) and cultured overnight. […] DOX was a reference compound that adversely affected the liver, kidney, and healthy cells. Treatment with compounds was carried out for 72 h. Cell viability was examined using an MTS-based CellTiter96® AQueous One Solution Cell Proliferation Assay (Promega, Madison, WI, USA) following the manufacturer’s protocol."}, "[3]": {"test_system": "human embryonic kidney cells (HEK293)", "test": "Safety study in vitro (MTS viability), HEK293", "format": "cell-based", "settings": "0.205–50 μM, 72 h", "procedure": "as §3"}, "[4]": {"test_system": "fibrosarcoma cells (HT-1080)", "test": "MTS-based cytotoxicity assay, HT-1080", "format": "cell-based, human", "settings": "Homo sapiens, HT-1080, 72 h, 72 h treatment, 0.205–50 μM, mean ± SEM", "procedure": "as §1, §2"}, "[5]": {"test_system": "human skin fibroblast (HSF)", "test": "Safety study in vitro (MTS viability), HSF", "format": "cell-based", "settings": "0.205–50 μM, 72 h", "procedure": "as §3"}, "PC-3 cell line": {"test_system": "PC-3 cell line", "test": "IncuCyte caspase-3/7 apoptosis induction assay", "format": "cell-based, human", "settings": "PC-3 cells, tested at 1 µM and 10 µM, monitored for 28 h; staurosporine 1 µM positive control", "procedure": "Apoptosis induction tests were conducted using the IncuCyte system to test cells (PC-3) in an in vitro culture. […] The compounds were tested at 1 µM and 10 µM concentrations, and apoptosis was monitored for 28 h (Figure 6). The incubation time was selected based on the induction of apoptosis in the control cells. Staurosporine (STA) at a concentration of 1 µM was used as the positive control, while the negative control cells were treated with 0.1% DMSO (vehicle control). […].\nApoptosis was monitored in real time using the Incucyte® Caspase-3/7 for […] Dyes (Cat. No. 4776, Sartorius, Ann Arbor, MI, USA). The principle of this test is based on binding a DNA intercalating dye with the activation motif (DEVD) of caspase-3/7, allowing a quantitative analysis of cells to undergo caspase-3/7-mediated apoptosis in real time. For the experiment, PC3 cells were seeded in a black 96-well plate with transparent bottom (cat. no. 165305, ThermoScientific, Waltham, MA, USA) at 10,000 cells/well density and cultured overnight. The next day, the medium was removed, and the cells were treated with the tested compound. […] The IncuCyte S3 imaging system recorded kinetic measures of the number of caspase-3/7 positive cells. Repeat scanning to record phase and fluorescence images were every 2 h, for up to 28 h. […]"}, "[6]": {"test_system": "breast cancer cells (MCF-7)", "test": "MTS-based cytotoxicity assay, MCF-7", "format": "cell-based, human", "settings": "Homo sapiens, MCF7, 72 h, 72 h treatment, 0.205–50 μM, mean ± SEM", "procedure": "as §1, §2"}, "[7]": {"test_system": "colorectal adenoma cancer cell line (HT-29)", "design": "method as in doi:10.1016/j.tet.2006.12.076", "settings": "cancer cell line growth inhibition; cited from earlier work"}, "[8]": {"test_system": "breast cancer cell line (MCF-7)", "design": "method as in doi:10.1016/j.tet.2006.12.076", "settings": "cancer cell line growth inhibition; cited from earlier work"}, "[9]": {"test_system": "human lymphocyte cell line (CEM)", "design": "method as in PMID 30060562", "settings": "anticancer activity; cited from earlier work"}, "Jurkat cell line": {"test_system": "Jurkat cell line", "design": "method as in PMID 20813537", "settings": "antitumor effect; cited from earlier work"}, "HCT-116 [10]": {"test_system": "HCT-116", "design": "method as in PMID 32510731", "settings": "antiproliferative activity; cited from earlier work"}, "MCF-7": {"test_system": "MCF-7", "design": "method as in PMID 32510731", "settings": "antiproliferative activity; cited from earlier work"}, "HepG2": {"test_system": "HepG2", "design": "method as in PMID 32510731", "settings": "antiproliferative activity; cited from earlier work"}, "[11]": {"test_system": "PARP1 (poly(ADP-ribose)polymerase 1)", "design": "method as in PMID 37843892", "settings": "cited from earlier work"}, "[12]": {"test_system": "PARP2 (poly(ADP-ribose)polymerase 2)", "design": "method as in PMID 37843892", "settings": "cited from earlier work"}, "HCT-116 [13]": {"test_system": "HCT-116", "design": "method as in PMID 37903949", "settings": "cytotoxic activity; cited from earlier work"}, "[14]": {"test_system": "epidermoid carcinoma cell line (KB)", "settings": "cytotoxicity; cited from earlier work"}, "[15]": {"test_system": "murine leukemia cell line (L1210)", "settings": "cytotoxicity; cited from earlier work"}},
  "note": "“Also recorded” adds a separate entry of the source.",
  "data": [
    {"smiles": "O=c1c2ccccc2n(C[C@@H]2C[C@@H](P(=O)(OCc3ccccc3)OCc3ccccc3)N(Cc3ccccc3)O2)c(=O)n1Cc1ccccc1F", "note": "(relative stereo) [trans-16b, Dibenzyl cis- and trans-5-((3-(2-fluorobenzyl)-3,4-dihydro-2,4-dioxoquinazolin-1(2H)-yl)methyl)-2-benzylisoxazolidin-3-yl-3-phosphonate]", "values": [
      {"measurement": "IC50", "setting": "[1]", "value": "9.84 ± 3.69", "unit": "µM"},
      {"measurement": "Cell viability, HepG2", "setting": "[2]", "value": "did not affect cell viability"},
      {"measurement": "Cell viability, HEK293", "setting": "[3]", "value": "did not affect cell viability"},
      {"measurement": "IC50", "setting": "[4]", "value": "34.6 ± 5.3", "unit": "µM"},
      {"measurement": "Cell viability, HSF", "setting": "[5]", "value": "no adverse effect was observed"},
      {"measurement": "Induction of apoptosis (caspase-3/7 positive cells)", "setting": "PC-3 cell line", "value": "comparable to that induced with staurosporine; also recorded: highest induction of apoptosis; also recorded: strongly induced apoptosis"},
      {"measurement": "IC50", "setting": "[6]", "value": "78.7 ± 2.35", "unit": "µM"}
    ]},
    {"smiles": "O=c1[nH]cc(F)c(=O)[nH]1", "note": "[5-Fluorouracil]", "values": [
      {"measurement": "GI, HT-29", "setting": "[7]", "value": 34, "unit": "%"},
      {"measurement": "GI, MCF-7", "setting": "[8]", "value": 31, "unit": "%"},
      {"measurement": "IC50", "setting": "[9]", "value": "18 ± 5", "unit": "µM"}
    ]},
    {"smiles": "Cc1cn(C2CC(c3ccccc3Cl)N(C)O2)c(=O)[nH]c1=O", "note": "(stereo not shown) [Compound 5]", "values": [
      {"measurement": "IC50", "setting": "Jurkat cell line", "value": "8.8 ± 4.4", "unit": "µM"}
    ]},
    {"smiles": "O=C(Cn1c(=O)c2ccccc2n(Cc2ccccc2)c1=O)Nc1ccc(C(=O)N/N=C/c2ccc(Cl)cc2)cc1", "note": "[Compound 14]", "values": [
      {"measurement": "GI50", "setting": "HCT-116 [10]", "value": "5.69 ± 0.4", "unit": "µM"},
      {"measurement": "GI50", "setting": "MCF-7", "value": "5.27 ± 0.2", "unit": "µM"},
      {"measurement": "GI50", "setting": "HepG2", "value": "9.16 ± 0.8", "unit": "µM"}
    ]},
    {"smiles": "O=C(c1cc(Cn2c(=O)[nH]c(=O)c3ccccc32)ccc1F)N1CCN(C2CCCC2)C(=O)C1", "note": "[Compound 15]", "values": [
      {"measurement": "PARP1 inhibition", "setting": "[11]", "value": "inhibited"},
      {"measurement": "PARP2 inhibition", "setting": "[12]", "value": "inhibited"}
    ]},
    {"smiles": "COc1cc2nccc(Oc3ccc(NC(=O)C4(C(=O)Nc5ccc(F)cc5)CC4)cc3)c2cc1OC", "note": "[cabozantinib, reference compound]", "values": [
      {"measurement": "IC50", "setting": "HCT-116 [13]", "value": "16.4 ± 0.86", "unit": "µM"}
    ]},
    {"smiles": "C(=C/CCCCN1OC(CCCCCCCCc2cccnc2)C2CCCC21)/CCCCCCCCCc1cccnc1", "note": "(stereo not shown) [pyrinodemin A]", "values": [
      {"measurement": "IC50, KB", "setting": "[14]", "value": 0.5, "unit": "µg/mL"},
      {"measurement": "IC50, L1210", "setting": "[15]", "value": 0.058, "unit": "µg/mL"}
    ]}
  ]
}
